{
  "source": "patent US11261175B2",
  "about": "(priority 2017, dated 2022)",
  "type_in_all_cases": "cell-based",
  "key": {"[1]": {"tested_on": "HCV replicon S52-Feo (genotype 3a)", "assay": "Anti-HCV activity using HCV replicon S52-Feo (genotype 3a) in Huh 7.5.1 cells, luciferase readout", "conditions": "Hepatitis C virus, 72 h; Huh 7.5.1 cells with S52-Feo replicon, 3 days, firefly luciferase; read-out: HCV wt. GT-3a"}, "[2]": {"tested_on": "JFH5a-Rluc-ad34 virus (HCV GT-2a)", "assay": "Anti-HCV activity using HCVcc (JFH5a-Rluc-ad34 virus) in Huh 7.5.1 cells, Renilla luciferase readout", "conditions": "Hepatitis C virus, GT2A, Huh-7.5.1, 72 h, read-out: HCV wt. GT-2a", "how_it_was_run": "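Huh 7.5.1 cells were inoculated with JFH5a-Rluc-ad34, a JFH1-derived virus with adaptive E2/p7 mutations, for 4 h before serially diluted compound was added. Intracellular Renilla luciferase was read after three days and normalized to mock-treated controls.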"}, "[3]": {"tested_on": "HCV genotype 1b replicon with NS5A L31V+Y93H (double mutant)", "assay": "Transiently transfected assay of genotype 1b resistance mutant RNA L31V+Y93H (double mutant)", "conditions": "Hepatitis C virus, Huh-7.5.1, 72 h, read-out: HCV Mutation L31V + Y93H", "how_it_was_run": "(§1)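 Huh7.5.1 cells were electroporated with in vitro-transcribed, ScaI-linearized replicon RNAs carrying the Daclatasvir-resistance substitutions, then seeded 4 h later into DMEM with serially diluted compound. After 3 days, intracellular luciferase activity was read and normalized to mock-treated cells.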"}, "[4]": {"tested_on": "HCV genotype 1b replicon with NS5A Y93H mutation", "assay": "Transiently transfected assay of genotype 1b resistance mutant RNA Y93H", "conditions": "Hepatitis C virus, Huh-7.5.1, 72 h, read-out: HCV Mutation Y93H", "how_it_was_run": "as §1"}, "[5]": {"tested_on": "HCV replicon NK5.1-Gluc (genotype 1b)", "assay": "Anti-HCV activity using HCV replicon NK5.1-Gluc (genotype 1b) in Huh 7.5.1 cells, luciferase readout", "conditions": "Hepatitis C virus, 72 h; Huh 7.5.1 cells with NK5.1-Gluc replicon, 3 days, Gaussia luciferase; read-out: HCV wt. GT-1b"}, "[6]": {"tested_on": "HCV genotype 1b replicon with NS5A L31V mutation", "assay": "Transiently transfected assay of genotype 1b resistance mutant RNA L31V", "conditions": "Hepatitis C virus, Huh-7.5.1, 72 h, read-out: HCV Mutation L31V", "how_it_was_run": "as §1"}},
  "data": [
    {"compound": "CCCCC1(CCCC)c2cc(NC(=O)[C@@H]3C[C@@H](OCCOC)CN3C(=O)[C@H](NC(=O)OC)c3ccccc3)ccc2-c2ccc(NC(=O)[C@@H]3C[C@@H](OCCOC)CN3C(=O)[C@H](NC(=O)OC)c3ccccc3)cc21", "note": "[Example 34, dimethyl (1R,1′R)-2,2′-((3R,3′R,5S,5′S)-5,5′-(9,9-dibutyl-9H-fluorene-2,7-diyl)bis(azanediyl)bis(oxomethylene)bis(3-(2-methoxyethoxy)pyrrolidine-5,1-diyl))bis(2-oxo-1-phenylethane-2,1-diyl)dicarbamate]", "values": [
      {"measurement": "EC50", "setting": "[1]", "value": "1 to 100", "unit": "nM"},
      {"measurement": "EC50", "setting": "[2]", "value": "1 to 100", "unit": "nM"},
      {"measurement": "EC50", "setting": "[3]", "value": "1 to 100", "unit": "nM"},
      {"measurement": "EC50", "setting": "[4]", "value": "0.01 to 0.1", "unit": "nM"},
      {"measurement": "EC50", "setting": "[5]", "value": "0.1 to 1", "unit": "nM"},
      {"measurement": "EC50", "setting": "[6]", "value": "0.01 to 0.1", "unit": "nM"}
    ]},
    {"compound": "CCCCC1(CCCC)c2cc(NC(=O)[C@@H]3C[C@H](O)CN3C(=O)[C@H](NC(=O)OC)c3ccccc3)ccc2-c2ccc(NC(=O)[C@@H]3C[C@H](O)CN3C(=O)[C@H](NC(=O)OC)c3ccccc3)cc21", "note": "[Example 35, dimethyl (1R,1′R)-2,2′-((3S,3′S,5S,5′S)-5,5′-(9,9-dibutyl-9H-fluorene-2,7-diyl)bis(azanediyl)bis(oxomethylene)bis(3-hydroxypyrrolidine-5,1-diyl))bis(2-oxo-1-phenylethane-2,1-diyl)dicarbamate]", "values": [
      {"measurement": "EC50", "setting": "[1]", "value": "0.01 to 0.1", "unit": "nM"},
      {"measurement": "EC50", "setting": "[2]", "value": "1 to 100", "unit": "nM"},
      {"measurement": "EC50", "setting": "[3]", "value": "1 to 100", "unit": "nM"},
      {"measurement": "EC50", "setting": "[4]", "value": "0.1 to 1", "unit": "nM"},
      {"measurement": "EC50", "setting": "[5]", "value": "0.01 to 0.1", "unit": "nM"},
      {"measurement": "EC50", "setting": "[6]", "value": "0.001 to 0.01", "unit": "nM"}
    ]},
    {"compound": "CCCCC1(CCCC)c2cc(NC(=O)[C@@H]3C[C@H](COC)CN3C(=O)[C@H](NC(=O)OC)c3ccccc3)ccc2-c2ccc(NC(=O)[C@@H]3C[C@H](COC)CN3C(=O)[C@H](NC(=O)OC)c3ccccc3)cc21", "note": "[Example 36, dimethyl (1R,1′R)-2,2′-((3S,3′S,5S,5′S)-5,5′-(9,9-dibutyl-9H-fluorene-2,7-diyl)bis(azanediyl)bis(oxomethylene)bis(3-(methoxymethyl)pyrrolidine-5,1-diyl))bis(2-oxo-1-phenylethane-2,1-diyl)dicarbamate]", "values": [
      {"measurement": "EC50", "setting": "[1]", "value": "0.01 to 0.1", "unit": "nM"},
      {"measurement": "EC50", "setting": "[2]", "value": "0.1 to 1", "unit": "nM"},
      {"measurement": "EC50", "setting": "[3]", "value": "0.1 to 1", "unit": "nM"},
      {"measurement": "EC50", "setting": "[4]", "value": "0.001 to 0.01", "unit": "nM"},
      {"measurement": "EC50", "setting": "[5]", "value": "0.001 to 0.01", "unit": "nM"},
      {"measurement": "EC50", "setting": "[6]", "value": "0.001 to 0.01", "unit": "nM"}
    ]},
    {"compound": "CCCCC1(CCCC)c2cc(NC(=O)[C@@H]3CCCN3C(=O)[C@H](NC(=O)OC)c3ccccc3)ccc2-c2ccc(NC(=O)[C@@H]3C[C@H](COC)CN3C(=O)[C@H](NC(=O)OC)c3ccccc3)cc21", "note": "[Example 37, methyl ((R)-2-((2S,4S)-2-((9,9-dibutyl-7-((S)-1-((R)-2-((methoxycarbonyl)amino)-2-phenylacetyl)pyrrolidine-2-carboxyamido)-9H-fluorene-2-yl)carbamoyl)-4-(methoxymethyl)pyrrolidine-1-yl)-2-oxo-1-phenylethyl)carbamate]", "values": [
      {"measurement": "EC50", "setting": "[1]", "value": "0.001 to 0.01", "unit": "nM"},
      {"measurement": "EC50", "setting": "[2]", "value": "0.1 to 1", "unit": "nM"},
      {"measurement": "EC50", "setting": "[3]", "value": "1 to 100", "unit": "nM"},
      {"measurement": "EC50", "setting": "[4]", "value": "0.01 to 0.1", "unit": "nM"},
      {"measurement": "EC50", "setting": "[5]", "value": "0.001 to 0.01", "unit": "nM"},
      {"measurement": "EC50", "setting": "[6]", "value": "0.001 to 0.01", "unit": "nM"}
    ]},
    {"compound": "CCCCC1(CCCC)c2cc(NC(=O)[C@@H]3C[C@@H](O)CN3C(=O)[C@H](NC(=O)OC)c3ccccc3)ccc2-c2ccc(NC(=O)[C@@H]3C[C@H](COC)CN3C(=O)[C@H](NC(=O)OC)c3ccccc3)cc21", "note": "[Example 38, methyl ((R)-2-((2S,4S)-2-((9,9-dibutyl-7-((2S,4R)-4-hydroxy-1-((R)-2-((methoxycarbonyl)amino)-2-phenylacetyl)pyrrolidine-2-carboxyamido)-9H-fluorene-2-yl)carbamoyl)-4-(methoxymethyl)pyrrolidine-1-yl)-2-oxo-1-phenylethyl)carbamate]", "values": [
      {"measurement": "EC50", "setting": "[1]", "value": "0.01 to 0.1", "unit": "nM"},
      {"measurement": "EC50", "setting": "[2]", "value": "0.1 to 1", "unit": "nM"},
      {"measurement": "EC50", "setting": "[3]", "value": "0.01 to 0.1", "unit": "nM"},
      {"measurement": "EC50", "setting": "[4]", "value": "0.001 to 0.01", "unit": "nM"},
      {"measurement": "EC50", "setting": "[5]", "value": "0.01 to 0.1", "unit": "nM"},
      {"measurement": "EC50", "setting": "[6]", "value": "0.001 to 0.01", "unit": "nM"}
    ]},
    {"compound": "CCCCC1(CCCC)c2cc(NC(=O)[C@@H]3C[C@@H](OC)CN3C(=O)[C@H](NC(=O)OC)c3ccccc3)ccc2-c2ccc(NC(=O)[C@@H]3C[C@@H](OC)CN3C(=O)[C@H](NC(=O)OC)c3ccccc3)cc21", "note": "[Example 39, dimethyl (1R,1′R)-2,2′-((3R,3′R,5S,5′S)-5,5′-(9,9-dibutyl-9H-fluorene-2,7-diyl)bis(azanediyl)bis(oxomethylene)bis(3-methoxypyrrolidine-5,1-diyl))bis(2-oxo-1-phenylethane-2,1-diyl)dicarbamate]", "values": [
      {"measurement": "EC50", "setting": "[1]", "value": "0.1 to 1", "unit": "nM"},
      {"measurement": "EC50", "setting": "[2]", "value": "1 to 100", "unit": "nM"},
      {"measurement": "EC50", "setting": "[3]", "value": "1 to 100", "unit": "nM"},
      {"measurement": "EC50", "setting": "[4]", "value": "0.01 to 0.1", "unit": "nM"},
      {"measurement": "EC50", "setting": "[5]", "value": "0.01 to 0.1", "unit": "nM"},
      {"measurement": "EC50", "setting": "[6]", "value": "0.001 to 0.01", "unit": "nM"}
    ]},
    {"compound": "CCCCC1(CCCC)c2cc(NC(=O)[C@@H]3C[C@H](COC)CN3C(=O)[C@H](NC(=O)OC)c3ccccc3)ccc2-c2ccc(-c3cnc([C@@H]4C[C@H](COC)CN4C(=O)[C@@H](NC(=O)OC)C(C)C)[nH]3)cc21", "note": "[Example 40, methyl ((S)-1-((2S,4S)-2-(5-(9,9-dibutyl-7-((2S,4S)-1-((R)-2-((methoxycarbonyl)amino)-2-phenylacetyl)-4-(methoxymethyl)pyrrolidine-2-carboxyamido)-9H-fluorene-2-yl)-1H-imidazole-2-yl)-4-(methoxymethyl)pyrrolidine-1-yl)-3-methyl-1-oxobutane-2-yl)carbamate]", "values": [
      {"measurement": "EC50", "setting": "[1]", "value": "0.1 to 1", "unit": "nM"},
      {"measurement": "EC50", "setting": "[2]", "value": "0.01 to 0.1", "unit": "nM"},
      {"measurement": "EC50", "setting": "[3]", "value": "1 to 100", "unit": "nM"},
      {"measurement": "EC50", "setting": "[4]", "value": "0.01 to 0.1", "unit": "nM"},
      {"measurement": "EC50", "setting": "[5]", "value": "0.001 to 0.01", "unit": "nM"},
      {"measurement": "EC50", "setting": "[6]", "value": "0.001 to 0.01", "unit": "nM"}
    ]},
    {"compound": "CCCCC1(CCCC)c2cc(NC(=O)[C@@H]3CCCN3C(=O)[C@H](NC(=O)OC)c3ccccc3)ccc2-c2ccc(-c3cnc([C@@H]4C[C@H](COC)CN4C(=O)[C@@H](NC(=O)OC)C(C)C)[nH]3)cc21", "note": "[Example 41, methyl ((S)-1-((2S,4S)-2-(5-(9,9-dibutyl-7-((S)-1-((R)-2-((methoxycarbonyl)amino)-2-phenylacetyl)pyrrolidine-2-carboxyamido)-9H-fluorene-2-yl)-1H-imidazole-2-yl)-4-(methoxymethyl)pyrrolidine-1-yl)-3-methyl-1-oxobutane-2-yl)carbamate]", "values": [
      {"measurement": "EC50", "setting": "[1]", "value": "0.1 to 1", "unit": "nM"},
      {"measurement": "EC50", "setting": "[2]", "value": "0.01 to 0.1", "unit": "nM"},
      {"measurement": "EC50", "setting": "[3]", "value": "1 to 100", "unit": "nM"},
      {"measurement": "EC50", "setting": "[4]", "value": "0.01 to 0.1", "unit": "nM"},
      {"measurement": "EC50", "setting": "[5]", "value": "0.01 to 0.1", "unit": "nM"},
      {"measurement": "EC50", "setting": "[6]", "value": "0.001 to 0.01", "unit": "nM"}
    ]},
    {"compound": "CCCCC1(CCCC)c2cc(NC(=O)[C@@H]3C[C@H](COC)CN3C(=O)[C@H](NC(=O)OC)c3ccccc3)ccc2-c2ccc(-c3cnc([C@@H]4CCCN4C(=O)[C@@H](NC(=O)OC)C(C)C)[nH]3)cc21", "note": "[Example 42, methyl ((S)-1-((S)-2-(5-(9,9-dibutyl-7-((2S,4S)-1-((R)-2-((methoxycarbonyl)amino)-2-phenylacetyl)-4-(methoxymethyl)pyrrolidine-2-carboxyamido)-9H-fluorene-2-yl)-1H-imidazole-2-yl)pyrrolidine-1-yl)-3-methyl-1-oxobutane-2-yl)carbamate]", "values": [
      {"measurement": "EC50", "setting": "[1]", "value": "0.1 to 1", "unit": "nM"},
      {"measurement": "EC50", "setting": "[2]", "value": "0.1 to 1", "unit": "nM"},
      {"measurement": "EC50", "setting": "[3]", "value": "1 to 100", "unit": "nM"},
      {"measurement": "EC50", "setting": "[4]", "value": "0.01 to 0.1", "unit": "nM"},
      {"measurement": "EC50", "setting": "[5]", "value": "0.01 to 0.1", "unit": "nM"},
      {"measurement": "EC50", "setting": "[6]", "value": "0.001 to 0.01", "unit": "nM"}
    ]}
  ]
}
